Test results: publication PMC11253624, “Unsaturated fatty acid perturbation combats emerging triazole antifungal resistance in the human fungal pathogen Aspergillus fumigatus” (mBio, 2024)
≈ marks a conversion by molar mass, not a printed value.

What was measured:
[1] = system: Aspergillus fumigatus; assay: FIC checkerboard synergy assay, A. fumigatus; format: cell-based; details: for MIC: Aspergillus fumigatus
[2] = system: Cryptococcus neoformans; assay: FIC checkerboard assay MBX-7591 and oleic acid, C. neoformans; format: cell-based
Experimental: Single-treatment controls were completed with 50 µL of media to substitute the volume of the other compound. […] Additional untreated and media-only controls were added to the plate as described above. Incubation of the plates and MIC assessments (individual and in combination) were performed as described above. FIC calculations were done according to the established formula: ∑FIC=MIC combination compound A/MIC individual compound A + MIC combination compound B/MIC individual compound B . Synergy was considered equal or lower than 0.5, and antagonism was considered to be higher than 2. FIC scores reported represent between three and five biological replicates. All antifungal susceptibility testing was done in 96-well plates using RPMI 1640 media buffered with 165 mM of MOPS and pH 7 using NaOH. CLSI-based microbroth dilution assays were done in accordance with M27 ([49]). […] Additionally, an untreated control (100 µL of a stock of 2 × 10^3 spores/mL and 100 µL of media) and a media-only control (200 µL media) were included in the plate. The plate was covered in a Breathe-Eazy membrane to allow for uniform oxygen diffusion throughout the plate and incubated for 24 hours at 35°C (Candida spp.) or 72 hours at 35°C ± 5% CO2 (Cryptococcus neoformans).

[3] = system: Aspergillus fumigatus; assay: CLSI-based microbroth dilution MIC, A. fumigatus strains; details: Aspergillus fumigatus
[4] = system: A. fumigatus CEA10; assay: Fatty acid profile of 24-hour biofilms by GC-MS; format: cell-based, Aspergillus fumigatus; details: CEA10 24-hour biofilm; MBX-7591 0.58 µg/mL, voriconazole 0.0625 µg/mL

For `OC(Cn1cncn1)(Cn1cncn1)c1ccc(F)cc1F` [Fluconazole, fluconazole], the MIC ([1]; strain CEA10, FLC alone, read-out: MIC Azole (FLC)) was over 256 µg/mL, the “MIC Azole in combination (FLC)” value ([1]; strain CEA10, FLC with 0.613 µg/mL MBX-7591) was 16 µg/mL and the “fold increase in FLC potency” value ([1]; with 0.613 µg/mL MBX-7591) was over 16 fold.

In the case of `CCCCCCCC/C=C\CCCCCCCC(=O)O` [Oleic acid, oleic acid], the MIC ([1]; CEA10, oleic acid alone, read-out: MIC OA) is reported as over 500 µg/mL, the “MIC OA combination” value ([1]; CEA10, first line of Table S8 (MBX-7591 9.81 μg/ml)) is reported as 7.81 µg/mL and the “MIC OA combination” value ([1]; CEA10, second line of Table S8 (MBX-7591 19.63 μg/ml)) is reported as 15.63 µg/mL. The MIC ([2]; Cryptococcus neoformans, H99, oleic acid alone, 5% CO2) was over 500 µg/mL and the “MIC OA combination” value ([2]; H99, 5% CO2) was 31.25 µg/mL.

With `C[C@@H](c1ncncc1F)[C@](O)(Cn1cncn1)c1ccc(F)cc1F` [Voriconazole] the MIC ([3]; ATCC46455, read-out: Voriconazole MIC) was 0.25 to 0.5 µg/mL (≈ 0.716 to 1.43 µM), the MIC ([3]; read-out: Voriconazole MIC, strain 08-19-02-10 (TR34/L98H)) was 2 µg/mL (≈ 5.73 µM) and the MIC ([3]; read-out: Voriconazole MIC, strain 08-19-02-46 (TR34/L98H)) was 2 µg/mL (≈ 5.73 µM). It also gave an MIC ([3]; read-out: Voriconazole MIC, strain 08-19-02-61 (TR34/L98H), Table S6) of 1 µg/mL (≈ 2.86 µM), an MIC ([3]; read-out: Voriconazole MIC, strain 08-31-08-91 (TR34/L98H), Table S6) of 4 µg/mL (≈ 11.5 µM) and an MIC ([3]; read-out: Voriconazole MIC, strain 10-19-02-27 (TR34/L98H)) of 4 µg/mL (≈ 11.5 µM). For the same molecule, the MIC ([3]; read-out: Voriconazole MIC, strain F11628 (G138C), Table S6) was over 8 µg/mL, the MIC ([3]; read-out: Voriconazole MIC, strain F15390 (M220T), Table S6) was 1 µg/mL (≈ 2.86 µM) and the MIC ([1]; read-out: MIC VCZ, strain 08-19-02-61 (TR34/L98H), alone) was 2 µg/mL. For the same molecule, the MIC ([1]; read-out: MIC VCZ, strain 08-31-08-91 (TR34/L98H), alone) was 4 µg/mL, the MIC ([1]; read-out: MIC VCZ, strain F11628 (G138C), alone) was over 8 µg/mL and the MIC ([1]; read-out: MIC VCZ, strain F15390 (caf8) (M220T), alone) was 1 µg/mL. For the same molecule, the MIC ([1]; strain CEA10, alone, read-out: MIC VCZ) was 0.25 to 0.5 µg/mL, the “MIC VCZ in combination” value ([1]; strain 08-19-02-61, with MBX-7591) was 0.5 µg/mL and the “MIC VCZ in combination” value ([1]; strain 08-31-08-91, with MBX-7591) was 1 µg/mL. For the same molecule, the “MIC VCZ in combination” value ([1]; strain CEA10, with MBX-7591, listed as VCZ) was 0.0625 to 0.125 µg/mL, the “MIC VCZ” value ([1]; strain F11628 (G138C), alone, listed as VCZ) was over 8 µg/mL and the “MIC VCZ in combination” value ([1]; strain F11628, with MBX-7591) was 0.5 to 1 µg/mL. The “MIC VCZ in combination” value ([1]; strain F15390 (caf8), with MBX-7591) was 0.25 µg/mL, the “increase in VCZ potency in combination” value ([1]; with 0.613 µg/mL MBX-7591) was “four to eight times more potent” and the “C14:0 relative percentage of fatty acids” value [4] was 0.11 ± 0.0046. The “C15:0 relative percentage of fatty acids” value [4] was 0.39 ± 0.11, the “C16:0 (palmitic acid) relative percentage of fatty acids” value [4] was 18.71 ± 0.25 and the “C16:1n7 relative percentage of fatty acids” value [4] was 0.38 ± 0.041. For the same molecule, the “C17a relative percentage of fatty acids” value [4] was 0.18 ± 0.15, the “C18:0 (stearic acid) relative percentage of fatty acids” value [4] was 3.06 ± 0.26 and the “C18:1n7 relative percentage of fatty acids” value [4] was 0.00 ± 0. The “C18:1n9 (oleic acid) relative percentage of fatty acids” value [4] was 31.26 ± 1.67 and the “C18:2n6 relative percentage of fatty acids” value [4] was 45.91 ± 1.99.
